Measurements as given in patent US20030203373A1 (priority 2002, published 2003).
Where “and” joins values, the source holds several entries; their conditions need not be identical. Equal entries are not always repeated. Ends that are not written are not given here.

Molecular target: T1, ACE from pig kidney (Sus scrofa, UniProt F1RRW5)
T1 construct: 1 mU ACE from pig kidney (EC 3.4.15.1 (Sigma)); purchased Sigma; host or cells: pig kidney (tissue-derived enzyme)
T1 sequence (F1RRW5 34-1309): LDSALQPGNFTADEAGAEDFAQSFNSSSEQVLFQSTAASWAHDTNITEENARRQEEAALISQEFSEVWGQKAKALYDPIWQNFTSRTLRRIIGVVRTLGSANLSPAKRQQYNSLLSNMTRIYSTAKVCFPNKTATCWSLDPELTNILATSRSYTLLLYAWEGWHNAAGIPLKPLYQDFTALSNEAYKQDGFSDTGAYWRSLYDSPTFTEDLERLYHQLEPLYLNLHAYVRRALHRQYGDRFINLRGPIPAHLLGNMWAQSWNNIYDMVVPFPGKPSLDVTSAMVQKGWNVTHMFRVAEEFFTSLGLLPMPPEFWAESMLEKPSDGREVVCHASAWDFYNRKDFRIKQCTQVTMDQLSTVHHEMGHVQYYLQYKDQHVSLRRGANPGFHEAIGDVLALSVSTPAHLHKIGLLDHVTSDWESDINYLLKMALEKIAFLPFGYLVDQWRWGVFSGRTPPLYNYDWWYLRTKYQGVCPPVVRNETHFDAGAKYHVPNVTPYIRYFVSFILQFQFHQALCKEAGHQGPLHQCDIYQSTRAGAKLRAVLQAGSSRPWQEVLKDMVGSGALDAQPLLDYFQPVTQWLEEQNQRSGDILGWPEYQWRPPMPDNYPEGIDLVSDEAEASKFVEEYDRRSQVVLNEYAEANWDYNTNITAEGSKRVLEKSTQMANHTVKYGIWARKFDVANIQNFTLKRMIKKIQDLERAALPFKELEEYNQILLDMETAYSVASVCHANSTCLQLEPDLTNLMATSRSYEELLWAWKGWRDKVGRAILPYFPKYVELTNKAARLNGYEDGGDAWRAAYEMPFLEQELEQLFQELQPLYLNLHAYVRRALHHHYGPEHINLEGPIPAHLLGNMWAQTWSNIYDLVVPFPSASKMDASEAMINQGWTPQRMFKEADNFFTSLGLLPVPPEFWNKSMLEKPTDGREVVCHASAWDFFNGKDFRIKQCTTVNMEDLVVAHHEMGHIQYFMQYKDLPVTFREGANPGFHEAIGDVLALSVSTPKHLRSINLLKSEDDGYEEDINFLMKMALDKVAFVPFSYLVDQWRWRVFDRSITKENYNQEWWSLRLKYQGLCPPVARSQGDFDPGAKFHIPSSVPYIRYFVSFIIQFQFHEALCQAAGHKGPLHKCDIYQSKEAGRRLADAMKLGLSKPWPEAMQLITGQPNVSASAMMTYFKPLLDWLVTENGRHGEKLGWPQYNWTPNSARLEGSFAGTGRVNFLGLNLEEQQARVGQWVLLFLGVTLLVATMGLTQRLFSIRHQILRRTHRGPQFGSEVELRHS
Assay: biochemical
Assay type: biochemical
Conditions: for IC50: ACE from pig kidney, determined graphically, read-out: IC50-value (ACE inhibition)
Excerpt: These peptides were investigated for their inhibitory effect using an in vitro-ACE-inhibitor-assay with an angiotensin-converting-enzyme derived from pig kidney. Hippuryl-histidyl-leucin was used as a substrate. […] A concrete experimental description is given below.
The principle of the ACE-inhibition-assay was established by Chejung, H. S., Cushman, D. W.: “Inhibition of homogenous angiotensin converting enzyme of rabbit lung by synthetic venom peptides of Bothrops jararaca.” in Biochimica et Biophysica Acta 293, 451-563 (1973).
The assay was performed in 96 well HTRF-plates (Packard). The concentrations used for each well were:
1 mU ACE from pig kidney (EC 3.4.15.1 (Sigma)) in 30 μl of assay buffer (25 mM HEPES; 0,3 M NaCl, pH 8,2) and 20 μl inhibitor dissolved in assay buffer (0,35-200 μM). The reaction was started by adding 50 μl of 2 mM hippuryl-histidyl-leucin (Sigma) in assay buffer. The reaction was performed at room temperature (22° C.) for 30 minutes and terminated by adding 50 μl of 2 M NaOH. Afterwards 50 μl of 0,5% ortho-phtalaldehyd (Sigma) in methanol were added, 5 minutes later followed by 50 μl of 2,5 M HCl-solution to stabilize the developed fluorescence product.
The results were used to calculate the % inhibition. The IC50-values were determined graphically from a curve showing the dose-reaction ratio.
In order to minimize errors due to time-dependent differences, all pipetting steps were performed in a precise time schedule.

[1] = inhibitor 0.39 μM, replicates A-D
[2] = inhibitor 0.39 μM, replicates A-D, 0.39 µM
[3] = inhibitor 0.78125 μM, replicates A-D
[4] = inhibitor 0.78125 μM, replicates A-D, 0.78125 µM
[5] = inhibitor 1.5625 μM, replicates A-D
[6] = inhibitor 1.5625 μM, replicates A-D, 1.5625 µM
[7] = inhibitor 3.125 μM, replicates A-D
[8] = inhibitor 3.125 μM, replicates A-D, 3.125 µM
[9] = inhibitor 6.25 μM, replicates A-D
[10] = inhibitor 6.25 μM, replicates A-D, 6.25 µM
[11] = inhibitor 12.5 μM, replicates A-D
[12] = inhibitor 12.5 μM, replicates A-D, 12.5 µM
[13] = inhibitor 25 μM, replicates A-D
[14] = inhibitor 25 μM, replicates A-D, 25 µM
[15] = inhibitor 50 μM, replicates A-D
[16] = inhibitor 50 μM, replicates A-D, 50 µM
[17] = inhibitor 100 μM, replicates A-D
[18] = inhibitor 100 μM, replicates A-D, 100 µM
[19] = inhibitor 200 μM, replicates A-D
[20] = inhibitor 200 μM, replicates A-D, 200 µM

Row | Sequence | IC50 [µM] | fluorescence reading (ACE Inhibitor Assay) [1] | % inhibition (ACE Inhibitor Assay) [2] | fluorescence reading (ACE Inhibitor Assay) [3] | % inhibition (ACE Inhibitor Assay) [4] | fluorescence reading (ACE Inhibitor Assay) [5] | % inhibition (ACE Inhibitor Assay) [6] | fluorescence reading (ACE Inhibitor Assay) [7] | inhibition at 3.125 µM [7] [%] | % inhibition (ACE Inhibitor Assay) [8] | fluorescence reading (ACE Inhibitor Assay) [9] | inhibition at 6.25 µM [9] [%] | % inhibition (ACE Inhibitor Assay) [10] | fluorescence reading (ACE Inhibitor Assay) [11] | inhibition at 12.5 µM [11] [%] | % inhibition (ACE Inhibitor Assay) [12] | fluorescence reading (ACE Inhibitor Assay) [13] | inhibition at 25 µM [13] [%] | % inhibition (ACE Inhibitor Assay) [14] | fluorescence reading (ACE Inhibitor Assay) [15] | other results
1 | AALSPLPEVPP [Peptide S494] | 9 | 704319 and 727603 and 762908 and 659968 | 2.56% and −0.67% and −5.59% and 8.74% | 643151 and 655606 and 667363 and 633619 | 9.35% and 7.71% and 12.41% | 602329 and 645065 and 664903 and 606137 | 16.77% and 10.82% and 8.05% and 16.23% | 563277 and 547546 and 579178 and 556345 | 22.2 | 24.4% and 20% and 23.17% | 420434 and 435365 and 427540 and 433344 | 42.1 | 40.02% and 41.11% and 40.3% | 312590 and 306320 and 319249 and 308116 | 57.1 | 57.99% and 56.19% and 57.74% | 193365 and 203903 and 204201 and 188693 | 73.7 | 72.26% and 72.21% and 74.38% | 119135 and 120732 and 124777 and 108988 | inhibition at 0.78125 µM [3]: 11.1%; inhibition at 50 µM [15]: 84.1%; % inhibition (ACE Inhibitor Assay) [16]: 83.84% and 83.28% and 85.48%; fluorescence reading (ACE Inhibitor Assay) [17]: 59914 and 62551 and 64312 and 57543; inhibition at 100 µM [17]: 92.3%; % inhibition (ACE Inhibitor Assay) [18]: 91.94% and 91.7% and 92.64%; fluorescence reading (ACE Inhibitor Assay) [19]: 34342 and 34053 and 34364 and 34738; inhibition at 200 µM [19]: 95.9%; % inhibition (ACE Inhibitor Assay) [20]: 95.91% and 95.82%
2 | AGAALSPLPEVPP [Peptide S543] | 25 | 959059 and 985299 and 971597 and 996656 | 5.2% and 6.53% and 4.1% | 946496 and 913444 and 925926 and 981909 | 8.95% and 12.15% and 10.945% and 5.53% | 923507 and 888699 and 915925 and 980940 | 11.18% and 14.54% and 11.9% and 5.62% | 868636 and 880388 and 856283 and 938801 | 16.5 | 15.35% and 17.68% and 9.7% | 816251 and 788199 and 773151 and 833135 | 21.6 | 24.26% and 25.72% and 19.92% | 683603 and 714973 and 720213 and 700323 | 34.4 | 31.35% and 30.84% and 32.76% | 519515 and 531562 and 515233 and 534895 | 50.2 | 49.09% and 50.66% and 48.76% | 362416 and 357767 and 358975 and 367216 | inhibition at 0.39 µM [1]: 7.74%; inhibition at 50 µM [15]: 65.5%; % inhibition (ACE Inhibitor Assay) [16]: 65.9% and 65.78% and 64.98%; fluorescence reading (ACE Inhibitor Assay) [17]: 211437 and 206169 and 209393 and 219372; inhibition at 100 µM [17]: 80%; % inhibition (ACE Inhibitor Assay) [18]: 80.56% and 80.25% and 79.28%; fluorescence reading (ACE Inhibitor Assay) [19]: 107628 and 110019 and 108841 and 111945; inhibition at 200 µM [19]: 90.1%; % inhibition (ACE Inhibitor Assay) [20]: 89.95% and 89.97% and 89.67%
3 | EAGAALSPLPEVPP [Peptide S542] | 38 | 930945 and 967806 and 1003456 and 906307 | 4.59% and 0.79% and −2.87% and 7.13% | 910838 and 902555 and 939597 and 880680 | 6.66% and 7.52% and 3.7% and 9.77% | 794214 and 874684 and 882788 and 794177 | 10.39% and 9.55% | 821478 and 820849 and 868901 and 796263 | 15.9 | 15.93% and 10.98% and 18.47% | 801078 and 799975 and 802324 and 795040 | 18 | 18.08% and 17.84% and 18.59% | 719799 and 744223 and 765229 and 709216 | 26.3 | 23.83% and 21.66% and 27.43% | 609106 and 591988 and 618193 and 569641 | 37.8 | 39.51% and 36.81% and 41.81% | 424530 and 419325 and 440093 and 406539 | inhibition at 1.5625 µM [5]: 18.7%; inhibition at 50 µM [15]: 56.8%; % inhibition (ACE Inhibitor Assay) [16]: 57.3% and 55.16% and 58.61%; fluorescence reading (ACE Inhibitor Assay) [17]: 273140 and 278465 and 286263 and 274375; inhibition at 100 µM [17]: 72.3%; % inhibition (ACE Inhibitor Assay) [18]: 71.8% and 71% and 72.23%; fluorescence reading (ACE Inhibitor Assay) [19]: 167517 and 173807 and 184836 and 169891; inhibition at 200 µM [19]: 83.2%; % inhibition (ACE Inhibitor Assay) [20]: 82.59% and 81.45% and 82.99%
